These compounds were tested against T1, sGC α1/β1 heterodimer stably expressed in CHO-K1 cell line (CHO-K1/sGC) (Homo sapiens, UniProt Q02108+Q02153) (assay: Cell-based sGC Functional Assay (CASA Assay), cGMP generation). Settings: CHO-K1/sGC cells, 1 hr at 37° C., cGMP by HTRF, 4P fit; presence or absence of 1 μM DETA-NO not given; read-out: IP (nM) (inflection point).
T1 construct: expressed in transfected cells
T1 sequence (Q02108 1-690): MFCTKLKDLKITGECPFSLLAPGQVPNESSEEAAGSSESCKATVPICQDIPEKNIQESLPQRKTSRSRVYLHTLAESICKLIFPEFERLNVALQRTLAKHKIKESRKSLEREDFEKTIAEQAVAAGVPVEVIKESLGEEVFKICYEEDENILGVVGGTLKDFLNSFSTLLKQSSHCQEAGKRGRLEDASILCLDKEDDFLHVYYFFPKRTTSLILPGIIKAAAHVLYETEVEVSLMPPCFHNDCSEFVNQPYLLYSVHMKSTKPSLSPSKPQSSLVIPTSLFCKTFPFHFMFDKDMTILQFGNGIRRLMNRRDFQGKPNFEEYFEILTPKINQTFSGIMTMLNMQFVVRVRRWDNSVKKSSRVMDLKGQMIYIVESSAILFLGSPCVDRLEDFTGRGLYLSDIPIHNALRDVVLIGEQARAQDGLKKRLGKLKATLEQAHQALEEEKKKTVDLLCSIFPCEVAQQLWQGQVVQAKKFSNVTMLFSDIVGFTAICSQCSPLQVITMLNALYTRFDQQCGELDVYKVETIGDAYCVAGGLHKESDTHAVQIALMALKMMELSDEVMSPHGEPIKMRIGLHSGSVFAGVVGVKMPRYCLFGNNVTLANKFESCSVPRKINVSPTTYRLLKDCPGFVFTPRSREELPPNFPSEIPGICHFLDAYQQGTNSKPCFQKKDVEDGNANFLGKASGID
T1 sequence (Q02153 1-619): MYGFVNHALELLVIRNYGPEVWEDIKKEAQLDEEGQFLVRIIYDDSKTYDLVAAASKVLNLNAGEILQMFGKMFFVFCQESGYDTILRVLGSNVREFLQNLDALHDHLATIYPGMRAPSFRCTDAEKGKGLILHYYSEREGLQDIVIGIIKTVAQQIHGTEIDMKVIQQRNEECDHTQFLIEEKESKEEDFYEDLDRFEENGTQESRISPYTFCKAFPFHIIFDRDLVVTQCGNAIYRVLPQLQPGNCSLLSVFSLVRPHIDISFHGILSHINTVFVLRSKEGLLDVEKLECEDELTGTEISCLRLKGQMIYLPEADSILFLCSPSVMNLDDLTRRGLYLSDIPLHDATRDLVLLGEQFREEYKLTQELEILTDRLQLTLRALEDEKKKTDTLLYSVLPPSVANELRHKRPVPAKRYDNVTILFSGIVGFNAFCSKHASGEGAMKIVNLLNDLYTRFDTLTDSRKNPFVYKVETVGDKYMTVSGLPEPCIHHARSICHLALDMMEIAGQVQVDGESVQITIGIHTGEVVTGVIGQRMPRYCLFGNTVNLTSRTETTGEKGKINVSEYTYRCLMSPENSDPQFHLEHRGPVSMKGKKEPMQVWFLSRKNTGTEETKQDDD
In short: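 Readout is HTRF cGMP in lysates, normalised to the maximal response of reference sGC activator Compound A (100%), with a 4P fit giving IP and fold induction. Cells were CHO-K1/sGC (human α1/β1) in EBSS buffer with IBMX, incubated 1 hr at 37° C with compound. Run with and without 1 μM DETA-NO; final DMSO 2.5%.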

EC50	Structure (SMILES)
301 nM	CC1(c2ccccc2)C(=O)Nc2nc(-c3cn4ncnc4c(CCCC(F)(F)F)n3)nc(O)c21 (stereo not drawn) [Example 143B, 4-hydroxy-5-methyl-5-phenyl-2-(8-(4,4,4-trifluorobutyl)-[1,2,4]triazolo[1,5-a]pyrazin-6-yl)-5H-pyrrolo[2,3-d]pyrimidin-6(7H)-one]
1300 nM	O=C1Nc2nc(-c3cn4ncnc4c(CCCC(F)(F)F)n3)nc(O)c2C1(c1ccc(C(F)(F)F)cc1)C1CC1 (stereo not drawn) [Example 144A, 5-cyclopropyl-4-hydroxy-2-(8-(4,4,4-trifluorobutyl)-[1,2,4]triazolo[1,5-a]pyrazin-6-yl)-5-(4-(trifluoromethyl)phenyl)-5H-pyrrolo[2,3-d]pyrimidin-6(7H)-one]
1220 nM	CC1(c2ccccn2)C(=O)Nc2nc(-c3cn4ncnc4c(CCCC(F)(F)F)n3)nc(O)c21 (stereo not drawn) [Example 145B, 4-hydroxy-5-methyl-5-(pyridin-2-yl)-2-(8-(4,4,4-trifluorobutyl)-[1,2,4]triazolo[1,5-a]pyrazin-6-yl)-5H-pyrrolo[2,3-d]pyrimidin-6(7H)-one]
45.5 nM	CC1(c2ccc(F)c(F)c2)C(=O)Nc2nc(-c3cn4ncnc4c(CCCC(F)(F)F)n3)nc(O)c21 (stereo not drawn) [Example 146B, 5-(3,4-difluorophenyl)-4-hydroxy-5-methyl-2-(8-(4,4,4-trifluorobutyl)-[1,2,4]triazolo[1,5-a]pyrazin-6-yl)-5H-pyrrolo[2,3-d]pyrimidin-6(7H)-one]
214 nM	CC1(c2ccc(F)c(Cl)c2)C(=O)Nc2nc(-c3cn4ncnc4c(CCCC(F)(F)F)n3)nc(O)c21 (stereo not drawn) [Example 147B, 5-(3-chloro-4-fluorophenyl)-4-hydroxy-5-methyl-2-(8-(4,4,4-trifluorobutyl)-[1,2,4]triazolo[1,5-a]pyrazin-6-yl)-5,7-dihydro-6H-pyrrolo[2,3-d]pyrimidin-6-one]
1090 nM	COc1ccc(C2(C)C(=O)Nc3nc(-c4cn5ncnc5c(CCCC(F)(F)F)n4)nc(O)c32)nc1 (stereo not drawn) [Example 148A, 4-hydroxy-5-(5-methoxypyridin-2-yl)-5-methyl-2-(8-(4,4,4-trifluorobutyl)-[1,2,4]triazolo[1,5-a]pyrazin-6-yl)-5H-pyrrolo[2,3-d]pyrimidin-6(7H)-one]
990 nM	Cc1ccc(C2(C)C(=O)Nc3nc(-c4cn5ncnc5c(CCCC(F)(F)F)n4)nc(O)c32)nc1 (stereo not drawn) [Example 149B, 4-hydroxy-5-methyl-5-(5-methylpyridin-2-yl)-2-(8-(4,4,4-trifluorobutyl)-[1,2,4]triazolo[1,5-a]pyrazin-6-yl)-5H-pyrrolo[2,3-d]pyrimidin-6(7H)-one]
1220 nM	O=C1Nc2nc(-c3cn4ncnc4c(CCCC(F)(F)F)n3)nc(O)c2C1(c1ccc(F)cn1)C1CC1 (stereo not drawn) [Example 150A, 5-cyclopropyl-5-(5-fluoropyridin-2-yl)-4-hydroxy-2-(8-(4,4,4-trifluorobutyl)-[1,2,4]triazolo[1,5-a]pyrazin-6-yl)-5,7-dihydro-6H-pyrrolo[2,3-d]pyrimidin-6-one]
1490 nM	C[C@@]1(c2ccc(F)cc2)C(=O)Nc2nc(-c3cn4ncnc4c(CCC(F)(F)F)n3)nc(O)c21 [Example 151A, (S)-5-(4-fluorophenyl)-4-hydroxy-5-methyl-2-(8-(3,3,3-trifluoropropyl)-[1,2,4]triazolo[1,5-a]pyrazin-6-yl)-5,7-dihydro-6H-pyrrolo[2,3-d]pyrimidin-6-one]
133 nM	CC1(c2ccc(Cl)cc2)C(=O)Nc2nc(-c3cn4ncnc4c(CCC(F)(F)F)n3)nc(O)c21 (stereo not drawn) [Example 152A, 5-(4-chlorophenyl)-4-hydroxy-5-methyl-2-(8-(3,3,3-trifluoropropyl)-[1,2,4]triazolo[1,5-a]pyrazin-6-yl)-5H-pyrrolo[2,3-d]pyrimidin-6(7H)-one]
310 nM	CC1(c2ccc(Cl)c(F)c2)C(=O)Nc2nc(-c3cn4ncnc4c(CCC(F)(F)F)n3)nc(O)c21 (stereo not drawn) [Example 153B, 5-(4-chloro-3-fluorophenyl)-4-hydroxy-5-methyl-2-(8-(3,3,3-trifluoropropyl)-[1,2,4]triazolo[1,5-a]pyrazin-6-yl)-5H-pyrrolo[2,3-d]pyrimidin-6(7H)-one]
27.2 nM	CCCCc1nc(-c2nc(O)c3c(n2)NC(=O)[C@@]3(C)c2ccc(F)cc2)cn2ncnc12 [Example 154A, (S)-2-(8-butyl-[1,2,4]triazolo[1,5-a]pyrazin-6-yl)-5-(4-fluorophenyl)-4-hydroxy-5-methyl-5,7-dihydro-6H-pyrrolo[2,3-d]pyrimidin-6-one]
163 nM	CCCCc1nc(-c2nc(O)c3c(n2)NC(=O)C3(C)c2ccc(F)cn2)cn2ncnc12 (stereo not drawn) [Example 155B, 2-(8-butyl-[1,2,4]triazolo[1,5-a]pyrazin-6-yl)-5-(5-fluoropyridin-2-yl)-4-hydroxy-5-methyl-5H-pyrrolo[2,3-d] pyrimidin-6(7H)-one]
23.3 nM	CCCCc1nc(-c2nc(O)c3c(n2)NC(=O)C3(C)c2ccc(Cl)c(F)c2)cn2ncnc12 (stereo not drawn) [Example 156B, 2-(8-butyl-[1,2,4]triazolo[1,5-a]pyrazin-6-yl)-5-(4-chloro-3-fluorophenyl)-4-hydroxy-5-methyl-5H-pyrrolo[2,3-d] pyrimidin-6(7H)-one]
72.7 nM	CCCCc1nc(-c2nc(O)c3c(n2)NC(=O)C3(C)c2ccc(Cl)cc2)cn2ncnc12 (stereo not drawn) [Example 157A, 2-(8-butyl-[1,2,4]triazolo[1,5-a]pyrazin-6-yl)-5-(4-chlorophenyl)-4-hydroxy-5-methyl-5H-pyrrolo[2,3-d]pyrimidin-6(7H)-one]
102 nM	CCCCc1nc(-c2nc(O)c3c(n2)NC(=O)C3(C)c2ccc(F)c(F)c2)cn2ncnc12 (stereo not drawn) [Example 158B, 2-(8-butyl-[1,2,4]triazolo[1,5-a]pyrazin-6-yl)-5-(3,4-difluorophenyl)-4-hydroxy-5-methyl-5H-pyrrolo[2,3-d]pyrimidin-6(7H)-one]
209 nM	CCCCc1nc(-c2nc(O)c3c(n2)NC(=O)C3(C)c2ccc(C(F)(F)F)cn2)cn2ncnc12 (stereo not drawn) [Example 159B, 2-(8-butyl-[1,2,4]triazolo[1,5-a]pyrazin-6-yl)-4-hydroxy-5-methyl-5-(5-(trifluoromethyl)pyridin-2-yl)-5H-pyrrolo[2,3-d]pyrimidin-6(7H)-one]
50.2 nM	CCCCc1nc(-c2nc(O)c3c(n2)NC(=O)C3(C)c2ccc(Cl)cn2)cn2ncnc12 (stereo not drawn) [Example 160A, 2-(8-butyl-[1,2,4]triazolo[1,5-a]pyrazin-6-yl)-5-(5-chloropyridin-2-yl)-4-hydroxy-5-methyl-5H-pyrrolo[2,3-d]pyrimidin-6(7H)-one]
303 nM	CCCCc1nc(-c2nc(O)c3c(n2)NC(=O)C3(C)c2ccc(C)cn2)cn2ncnc12 (stereo not drawn) [Example 161B, 2-(8-butyl-[1,2,4]triazolo[1,5-a]pyrazin-6-yl)-4-hydroxy-5-methyl-5-(5-methylpyridin-2-yl)-5H-pyrrolo[2,3-d]pyrimidin-6(7H)-one]
96.7 nM	C[C@@]1(c2ccc(F)cc2)C(=O)Nc2nc(-c3cn4ncnc4c(Cc4ccc(F)cc4)n3)nc(O)c21 [Example 162B, (S)-2-(8-(4-fluorobenzyl)-[1,2,4]triazolo[1,5-a]pyrazin-6-yl)-5-(4-fluorophenyl)-4-hydroxy-5-methyl-5H-pyrrolo[2,3-d]pyrimidin-6(7H)-one]
1630 nM	CC(C)Cc1nc(-c2nc(O)c3c(n2)NC(=O)[C@@]3(C)c2ccc(F)cc2)cn2ncnc12 [Example 163A, (S)-5-(4-fluorophenyl)-4-hydroxy-2-(8-isobutyl-[1,2,4]triazolo[1,5-a]pyrazin-6-yl)-5-methyl-5,7-dihydro-6H-pyrrolo[2,3-d]pyrimidin-6-one]

Same assay, conditions: CHO-K1/sGC cells, 1 hr at 37° C., cGMP by HTRF; presence or absence of 1 μM DETA-NO not given; read-out: % Act. (percent activation relative to maximum cGMP production of Compound A = 100%)

Emax	Structure (SMILES)
70%	CC1(c2ccc(Cl)cc2)C(=O)Nc2nc(-c3cn4ncnc4c(CCC(F)(F)F)n3)nc(O)c21 (stereo not drawn) [Example 152A, 5-(4-chlorophenyl)-4-hydroxy-5-methyl-2-(8-(3,3,3-trifluoropropyl)-[1,2,4]triazolo[1,5-a]pyrazin-6-yl)-5H-pyrrolo[2,3-d]pyrimidin-6(7H)-one]
100%	CCCCc1nc(-c2nc(O)c3c(n2)NC(=O)[C@@]3(C)c2ccc(F)cc2)cn2ncnc12 [Example 154A, (S)-2-(8-butyl-[1,2,4]triazolo[1,5-a]pyrazin-6-yl)-5-(4-fluorophenyl)-4-hydroxy-5-methyl-5,7-dihydro-6H-pyrrolo[2,3-d]pyrimidin-6-one]
100%	C[C@@]1(c2ccc(F)cc2)C(=O)Nc2nc(-c3cn4ncnc4c(Cc4ccc(F)cc4)n3)nc(O)c21 [Example 162B, (S)-2-(8-(4-fluorobenzyl)-[1,2,4]triazolo[1,5-a]pyrazin-6-yl)-5-(4-fluorophenyl)-4-hydroxy-5-methyl-5H-pyrrolo[2,3-d]pyrimidin-6(7H)-one]

From US9822130B2, “Triazolo-pyrazinyl derivatives useful as soluble guanylate cyclase activators” (Merck Sharp & Dohme Corp., priority 2014, dated 2017)
